Legend:
Experiment in all cases: radiometric filter-binding kinase assay, Kinase HotSpot
Conditions in all cases: compound 0.5 µM; ATP 10 µM
[1] = molecular target: LTK (human) (UniProt P29376)
[2] = molecular target: CDK2 CCNE1 (human) (UniProt P24941+P24864)
[3] = molecular target: CHEK1 (human) (UniProt O14757)
[4] = molecular target: RIPK2 (human) (UniProt O43353)
[5] = molecular target: STK25 (human) (UniProt O00506)
[6] = molecular target: ITK (human) (UniProt Q08881)
[7] = molecular target: STK16 (human) (UniProt O75716)
[8] = molecular target: STK17A (human) (UniProt Q9UEE5)
[9] = molecular target: HIPK2 (human) (UniProt Q9H2X6)
[10] = molecular target: STK11 (human) (UniProt Q15831)
[11] = molecular target: PAK7 (human) (UniProt Q9P286)
[12] = molecular target: PRKACA (human) (UniProt P17612)
[13] = molecular target: EPHA8 (human) (UniProt P29322)
[14] = molecular target: CDK3 CCNE1 (human) (UniProt Q00526+P24864)
[15] = molecular target: SGK3 (human) (UniProt Q96BR1)
[16] = molecular target: NUAK2 (human) (UniProt Q9H093)
[17] = molecular target: ADRBK1 (human) (UniProt P25098)
[18] = molecular target: CSNK1G2 (human) (UniProt P78368)
[19] = molecular target: MAP4K4 (human) (UniProt O95819)
[20] = molecular target: FYN (human) (UniProt P06241)
[21] = molecular target: TAOK2 (human) (UniProt Q9UL54)
[22] = molecular target: PRKD3 (human) (UniProt O94806)
[23] = molecular target: GSK3A (human) (UniProt P49840)
[24] = molecular target: TAOK3 (human) (UniProt Q9H2K8)
[25] = molecular target: RPS6KB1 (human) (UniProt P23443)
[26] = molecular target: EPHA4 (human) (UniProt P54764)
[27] = molecular target: MAP2K1 (human) (UniProt Q02750)
[28] = molecular target: STK10 (human) (UniProt O94804)
[29] = molecular target: MST4 (human) (UniProt Q9P289)
[30] = molecular target: CDC42BPA (human) (UniProt Q5VT25)
[31] = molecular target: CDK7 CCNH MNAT1 (human) (UniProt P50613+P51948+P51946)
[32] = molecular target: PTK6 (human) (UniProt Q13882)
[33] = molecular target: PKN2 (human) (UniProt Q16513)
[34] = molecular target: YES1 (human) (UniProt P07947)
[35] = molecular target: HIPK1 (human) (UniProt Q86Z02)
[36] = molecular target: FGFR1 (human) (UniProt P11362)
[37] = molecular target: AKT1 (human) (UniProt P31749)
[38] = molecular target: PRKCD (human) (UniProt Q05655)
[39] = molecular target: EPHA2 (human) (UniProt P29317)
[40] = molecular target: MYLK (human) (UniProt Q15746)
[41] = molecular target: PRKD1 (human) (UniProt Q15139)
[42] = molecular target: PRKD2 (human) (UniProt Q9BZL6)

Chain of PRKD3 (human) (O94806 whole entry, looked up): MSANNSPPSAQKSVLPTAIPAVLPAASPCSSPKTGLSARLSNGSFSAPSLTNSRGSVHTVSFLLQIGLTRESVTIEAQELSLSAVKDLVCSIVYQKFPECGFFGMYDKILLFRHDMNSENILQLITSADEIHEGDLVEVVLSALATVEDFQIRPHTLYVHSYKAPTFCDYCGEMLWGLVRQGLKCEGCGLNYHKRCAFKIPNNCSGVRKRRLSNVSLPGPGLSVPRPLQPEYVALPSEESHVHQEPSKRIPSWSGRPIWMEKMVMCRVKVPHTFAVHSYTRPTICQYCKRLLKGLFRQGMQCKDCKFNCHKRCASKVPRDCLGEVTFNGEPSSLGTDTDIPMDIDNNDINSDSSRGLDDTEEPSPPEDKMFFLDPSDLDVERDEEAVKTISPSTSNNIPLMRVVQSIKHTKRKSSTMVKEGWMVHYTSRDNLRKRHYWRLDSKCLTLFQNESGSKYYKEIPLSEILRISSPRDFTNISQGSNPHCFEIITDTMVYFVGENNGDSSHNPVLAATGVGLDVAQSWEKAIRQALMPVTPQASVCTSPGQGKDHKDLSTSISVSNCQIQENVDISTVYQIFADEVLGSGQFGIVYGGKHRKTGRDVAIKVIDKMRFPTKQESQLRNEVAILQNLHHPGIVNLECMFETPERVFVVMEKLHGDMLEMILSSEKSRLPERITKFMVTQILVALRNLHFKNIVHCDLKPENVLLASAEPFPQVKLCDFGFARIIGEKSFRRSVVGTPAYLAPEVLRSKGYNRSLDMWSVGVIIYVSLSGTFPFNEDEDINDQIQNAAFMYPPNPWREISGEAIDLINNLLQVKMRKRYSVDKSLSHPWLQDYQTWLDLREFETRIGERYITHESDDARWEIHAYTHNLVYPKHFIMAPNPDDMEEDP
Chain of AKT1 (human) (P31749 whole entry, looked up): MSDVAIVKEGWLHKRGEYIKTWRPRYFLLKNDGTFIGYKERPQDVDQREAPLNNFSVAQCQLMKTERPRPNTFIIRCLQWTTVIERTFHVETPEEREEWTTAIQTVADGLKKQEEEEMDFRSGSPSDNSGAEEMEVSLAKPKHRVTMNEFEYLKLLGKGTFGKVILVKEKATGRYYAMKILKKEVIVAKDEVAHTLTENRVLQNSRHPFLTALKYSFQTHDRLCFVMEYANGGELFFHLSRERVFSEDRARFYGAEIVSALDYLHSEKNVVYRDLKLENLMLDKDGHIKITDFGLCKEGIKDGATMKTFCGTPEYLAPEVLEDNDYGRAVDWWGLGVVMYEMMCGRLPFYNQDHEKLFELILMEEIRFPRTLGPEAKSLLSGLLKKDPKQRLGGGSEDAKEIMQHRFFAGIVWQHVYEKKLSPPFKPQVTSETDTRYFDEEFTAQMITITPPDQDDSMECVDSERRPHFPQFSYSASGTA
Chain of STK10 (human) (O94804 whole entry, looked up): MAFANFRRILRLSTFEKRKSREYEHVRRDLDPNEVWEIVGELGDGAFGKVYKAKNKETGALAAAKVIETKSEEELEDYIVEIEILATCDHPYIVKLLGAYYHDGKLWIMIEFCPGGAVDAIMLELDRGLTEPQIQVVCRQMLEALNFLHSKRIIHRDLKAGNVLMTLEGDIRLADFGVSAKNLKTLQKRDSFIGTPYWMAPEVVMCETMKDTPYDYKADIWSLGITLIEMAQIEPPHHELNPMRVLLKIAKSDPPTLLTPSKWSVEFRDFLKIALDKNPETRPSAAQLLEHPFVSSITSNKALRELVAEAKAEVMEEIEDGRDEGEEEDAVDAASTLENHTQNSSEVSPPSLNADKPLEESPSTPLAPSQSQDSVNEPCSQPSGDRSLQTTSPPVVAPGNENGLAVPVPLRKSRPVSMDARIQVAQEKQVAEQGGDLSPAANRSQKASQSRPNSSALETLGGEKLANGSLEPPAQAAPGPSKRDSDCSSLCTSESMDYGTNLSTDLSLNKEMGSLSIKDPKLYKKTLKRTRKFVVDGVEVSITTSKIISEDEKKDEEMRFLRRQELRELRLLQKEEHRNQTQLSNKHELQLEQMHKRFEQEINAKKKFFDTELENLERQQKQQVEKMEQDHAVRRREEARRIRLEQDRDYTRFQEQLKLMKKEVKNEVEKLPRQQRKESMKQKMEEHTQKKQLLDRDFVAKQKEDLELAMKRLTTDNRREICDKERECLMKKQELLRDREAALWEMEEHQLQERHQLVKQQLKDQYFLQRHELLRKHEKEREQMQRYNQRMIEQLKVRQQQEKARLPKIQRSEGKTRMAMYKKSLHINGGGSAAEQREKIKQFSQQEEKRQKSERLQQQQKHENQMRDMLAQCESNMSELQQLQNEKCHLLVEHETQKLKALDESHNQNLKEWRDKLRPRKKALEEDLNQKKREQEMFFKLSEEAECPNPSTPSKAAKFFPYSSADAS
Chain of LTK (human) (P29376 whole entry, looked up): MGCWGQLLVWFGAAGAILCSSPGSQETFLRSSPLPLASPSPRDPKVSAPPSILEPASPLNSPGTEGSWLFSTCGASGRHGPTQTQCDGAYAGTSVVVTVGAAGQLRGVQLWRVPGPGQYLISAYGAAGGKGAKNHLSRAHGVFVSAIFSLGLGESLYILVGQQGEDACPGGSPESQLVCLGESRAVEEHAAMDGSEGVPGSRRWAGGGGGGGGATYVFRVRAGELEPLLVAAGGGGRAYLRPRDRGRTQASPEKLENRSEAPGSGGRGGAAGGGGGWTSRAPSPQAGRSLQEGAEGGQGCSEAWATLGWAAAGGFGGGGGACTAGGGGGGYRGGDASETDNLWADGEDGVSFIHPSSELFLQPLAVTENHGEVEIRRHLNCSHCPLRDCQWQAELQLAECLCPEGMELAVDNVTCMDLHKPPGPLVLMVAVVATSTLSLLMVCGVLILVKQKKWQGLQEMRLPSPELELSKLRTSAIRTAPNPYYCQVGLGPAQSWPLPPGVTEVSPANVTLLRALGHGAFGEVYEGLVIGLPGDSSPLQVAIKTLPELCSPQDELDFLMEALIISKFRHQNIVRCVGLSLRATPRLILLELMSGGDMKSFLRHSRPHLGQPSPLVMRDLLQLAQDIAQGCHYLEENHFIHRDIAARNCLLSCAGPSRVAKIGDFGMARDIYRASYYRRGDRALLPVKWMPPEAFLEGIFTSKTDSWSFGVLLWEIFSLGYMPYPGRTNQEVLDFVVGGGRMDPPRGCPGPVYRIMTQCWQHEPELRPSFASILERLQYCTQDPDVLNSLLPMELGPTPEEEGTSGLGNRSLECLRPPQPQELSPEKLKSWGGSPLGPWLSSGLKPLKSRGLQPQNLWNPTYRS
Chain of PRKD1 (human) (Q15139 whole entry, looked up): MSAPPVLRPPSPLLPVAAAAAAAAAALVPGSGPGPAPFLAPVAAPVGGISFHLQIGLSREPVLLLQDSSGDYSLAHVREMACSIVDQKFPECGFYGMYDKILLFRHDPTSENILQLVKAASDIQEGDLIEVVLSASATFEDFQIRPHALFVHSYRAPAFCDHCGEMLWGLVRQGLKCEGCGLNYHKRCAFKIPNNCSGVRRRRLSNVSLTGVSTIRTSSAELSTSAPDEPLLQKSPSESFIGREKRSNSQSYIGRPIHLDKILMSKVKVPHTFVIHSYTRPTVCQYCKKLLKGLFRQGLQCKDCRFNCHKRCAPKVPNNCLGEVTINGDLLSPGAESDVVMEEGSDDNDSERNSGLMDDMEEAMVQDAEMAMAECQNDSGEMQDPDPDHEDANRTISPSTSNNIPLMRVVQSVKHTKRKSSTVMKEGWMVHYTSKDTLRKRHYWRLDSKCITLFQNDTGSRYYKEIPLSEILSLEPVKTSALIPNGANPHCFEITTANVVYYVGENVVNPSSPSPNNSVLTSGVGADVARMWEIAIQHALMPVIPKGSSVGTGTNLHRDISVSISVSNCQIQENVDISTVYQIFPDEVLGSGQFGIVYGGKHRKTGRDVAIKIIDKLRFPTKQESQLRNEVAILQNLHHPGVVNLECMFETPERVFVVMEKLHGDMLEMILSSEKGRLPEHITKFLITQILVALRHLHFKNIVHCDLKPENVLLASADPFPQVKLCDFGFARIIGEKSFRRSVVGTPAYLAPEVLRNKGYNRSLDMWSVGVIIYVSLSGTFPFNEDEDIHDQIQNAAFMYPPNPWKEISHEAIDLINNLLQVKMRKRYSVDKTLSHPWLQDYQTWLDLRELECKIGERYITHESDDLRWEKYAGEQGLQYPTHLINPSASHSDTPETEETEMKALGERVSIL
Chain of STK25 (human) (O00506 whole entry, looked up): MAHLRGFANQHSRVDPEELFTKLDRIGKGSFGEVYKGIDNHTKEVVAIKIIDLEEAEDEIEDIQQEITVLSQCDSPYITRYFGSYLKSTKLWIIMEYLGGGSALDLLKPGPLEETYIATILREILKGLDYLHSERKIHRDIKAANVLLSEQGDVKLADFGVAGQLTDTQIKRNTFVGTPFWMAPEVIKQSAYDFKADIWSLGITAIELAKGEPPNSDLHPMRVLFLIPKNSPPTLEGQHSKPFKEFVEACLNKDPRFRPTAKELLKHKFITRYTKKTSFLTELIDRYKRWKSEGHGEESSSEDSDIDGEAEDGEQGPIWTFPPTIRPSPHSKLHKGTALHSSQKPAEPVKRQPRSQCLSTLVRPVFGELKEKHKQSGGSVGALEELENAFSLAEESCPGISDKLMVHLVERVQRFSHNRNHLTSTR
Chain of CSNK1G2 (human) (P78368 whole entry, looked up): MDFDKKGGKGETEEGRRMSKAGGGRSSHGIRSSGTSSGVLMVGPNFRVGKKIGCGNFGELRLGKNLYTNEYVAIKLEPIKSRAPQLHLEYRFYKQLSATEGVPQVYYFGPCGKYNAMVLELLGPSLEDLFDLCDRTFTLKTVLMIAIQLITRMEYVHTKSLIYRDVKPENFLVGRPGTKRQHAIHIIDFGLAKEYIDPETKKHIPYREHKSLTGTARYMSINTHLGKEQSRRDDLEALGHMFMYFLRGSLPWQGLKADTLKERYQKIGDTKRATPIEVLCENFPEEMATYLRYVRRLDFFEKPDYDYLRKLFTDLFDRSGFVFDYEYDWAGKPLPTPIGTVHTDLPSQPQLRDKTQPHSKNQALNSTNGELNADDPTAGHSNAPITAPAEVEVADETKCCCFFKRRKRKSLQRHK

CCn1cnc2c(Nc3cccc(Cl)c3)nc(N[C@@H]3CCCC[C@@H]3N)nc21
residual activity [1]: 93.8%
residual activity [2]: 16.8%
residual activity [3]: 85.8%
residual activity [4]: 70%
residual activity [5]: 101%
residual activity [6]: 105%
residual activity [7]: 101%
residual activity [8]: 98.4%
residual activity [9]: 94%
residual activity [10]: 78%
residual activity [11]: 64.7%
residual activity [12]: 102%
residual activity [13]: 93%
residual activity [14]: 49.7%
residual activity [15]: 94.3%
residual activity [16]: 93.7%
residual activity [17]: 96.5%
residual activity [18]: 69.5%
residual activity [19]: 72.5%
residual activity [20]: 48.6%
residual activity [21]: 101%
residual activity [22]: 90.6%
residual activity [23]: 103%
residual activity [24]: 104%
residual activity [25]: 97.3%
residual activity [26]: 78.5%
residual activity [27]: 92.2%
residual activity [28]: 75.1%
residual activity [29]: 104%
residual activity [30]: 93.4%
residual activity [31]: 58.4%
residual activity [32]: 82.1%
residual activity [33]: 90.3%
residual activity [34]: 35.4%
residual activity [35]: 97.5%
residual activity [36]: 85.7%
residual activity [37]: 108%
residual activity [38]: 91.2%
residual activity [39]: 86.7%
residual activity [40]: 91%
residual activity [41]: 90.8%

Nc1nnc2[nH]c3ccccc3nc1-2
residual activity [1]: 89.4%
residual activity [2]: 85.5%
residual activity [3]: 187%
residual activity [4]: 81.1%
residual activity [5]: 99.9%
residual activity [6]: 101%
residual activity [7]: 91.9%
residual activity [8]: 95.2%
residual activity [9]: 95.9%
residual activity [10]: 85.7%
residual activity [11]: 98.4%
residual activity [12]: 102%
residual activity [13]: 104%
residual activity [14]: 93.1%
residual activity [15]: 96.6%
residual activity [16]: 96.3%
residual activity [17]: 101%
residual activity [18]: 93.8%
residual activity [19]: 76.2%
residual activity [20]: 96.1%
residual activity [21]: 103%
residual activity [22]: 87.3%
residual activity [23]: 91.6%
residual activity [24]: 97.1%
residual activity [25]: 99.8%
residual activity [26]: 86.5%
residual activity [27]: 98.8%
residual activity [28]: 94.6%
residual activity [29]: 91.2%
residual activity [30]: 95.4%
residual activity [31]: 98%
residual activity [32]: 84.1%
residual activity [33]: 98.7%
residual activity [34]: 97.1%
residual activity [36]: 93.9%
residual activity [37]: 106%
residual activity [42]: 94.5%
residual activity [38]: 98.3%
residual activity [39]: 98.5%
residual activity [40]: 93.6%
residual activity [41]: 94.9%

CN([C@@H](Cc1ccc(OS(=O)(=O)c2cccc3cnccc23)cc1)C(=O)N1CCN(c2ccccc2)CC1)S(=O)(=O)c1cccc2cnccc12
residual activity [1]: 102%
residual activity [2]: 94.9%
residual activity [3]: 99.5%
residual activity [4]: 89.4%
residual activity [5]: 98.8%
residual activity [6]: 99.4%
residual activity [7]: 104%
residual activity [8]: 104%
residual activity [9]: 109%
residual activity [10]: 99%
residual activity [11]: 103%
residual activity [13]: 99.6%
residual activity [14]: 101%
residual activity [15]: 104%
residual activity [16]: 88.7%
residual activity [17]: 97.5%
residual activity [18]: 100%
residual activity [19]: 94.8%
residual activity [20]: 101%
residual activity [21]: 98.3%
residual activity [22]: 99.2%
residual activity [23]: 99.8%
residual activity [24]: 89.9%
residual activity [25]: 101%
residual activity [26]: 95.4%
residual activity [27]: 75.3%
residual activity [28]: 96.3%
residual activity [29]: 109%
residual activity [30]: 98.9%
residual activity [31]: 99.4%
residual activity [32]: 89.7%
residual activity [33]: 98.6%
residual activity [34]: 110%
residual activity [35]: 110%
residual activity [36]: 103%
residual activity [37]: 102%
residual activity [42]: 100%
residual activity [38]: 93%
residual activity [39]: 101%
residual activity [40]: 98.2%
residual activity [41]: 101%

O=C1Cc2c([nH]c3ccc(Br)cc23)-c2ccccc2N1
residual activity [1]: 91.8%
residual activity [2]: 51.9%
residual activity [3]: 89%
residual activity [4]: 75.9%
residual activity [5]: 98.8%
residual activity [6]: 102%
residual activity [7]: 98.9%
residual activity [8]: 102%
residual activity [9]: 107%
residual activity [10]: 95.7%
residual activity [11]: 85.1%
residual activity [12]: 102%
residual activity [13]: 101%
residual activity [14]: 81.7%
residual activity [15]: 107%
residual activity [16]: 71.1%
residual activity [17]: 103%
residual activity [18]: 102%
residual activity [19]: 6.61%
residual activity [20]: 73.4%
residual activity [21]: 94%
residual activity [22]: 95.5%
residual activity [23]: 5.87%
residual activity [24]: 82.8%
residual activity [25]: 103%
residual activity [26]: 96.1%
residual activity [27]: 84.3%
residual activity [28]: 89.8%
residual activity [29]: 108%
residual activity [30]: 99%
residual activity [31]: 95.1%
residual activity [32]: 87.7%
residual activity [33]: 96.8%
residual activity [34]: 59.1%
residual activity [36]: 99.4%
residual activity [37]: 99.9%
residual activity [42]: 100%
residual activity [38]: 92.7%
residual activity [39]: 98.3%
residual activity [40]: 96.3%
residual activity [41]: 101%
